Source: the supplement of paper PMC10331698
± gives the standard deviation of the averaged measurements.

What was measured:
Assay in all cases: level (log10 ratio to DMSO vehicle control); higher = higher biomarker level / cell amount than vehicle control
[1] = compound: NS(=O)(=O)C(F)(F)C(F)(F)C(F)(F)C(F)(F)C(F)(F)C(F)(F)C(F)(F)C(F)(F)F [Perfluorooctanesulfonamide] (in DMSO)
Method: (§1)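 BioMAP Diversity Plus panel of 12 human primary cell co-culture systems (3C, 4H, LPS, SAg, BT, BF4T, BE3C, CASM3C, HDF3CGF, KF3CT, MyoF, Mphg). Compounds were added 1 h before stimulation and left for 24 h (MyoF 48 h; BT 72 h for soluble read-outs or 6 d for IgG). Biomarkers were read by ELISA, cytotoxicity by SRB, PBMC viability and proliferation by Alamar Blue. Each well value was divided by the mean of 8 DMSO control wells on the same plate and log10 transformed; duplicate blinded samples were tested at 4 concentrations.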

[2] = compound: OCC(F)(F)C(F)(F)C(F)(F)C(F)(F)C(F)(F)C(F)(F)CO [1H,1H,8H,8H-Perfluorooctane-1,8-diol] (in DMSO)
Method: as §1

Octafluoroadipic acid = compound: O=C(O)C(F)(F)C(F)(F)C(F)(F)C(F)(F)C(=O)O [Octafluoroadipic acid] (in DMSO)
Method: as §1

[3] = compound: CO[Si](C)(CCC(F)(F)C(F)(F)C(F)(F)C(F)(F)C(F)(F)C(F)(F)F)OC [Dimethoxymethyl((perfluorohexyl)ethyl)silane] (in DMSO)
Method: as §1

[4] = compound: O=S(=O)(O)C(F)(F)C(F)(F)OC(F)(F)C(F)(F)F [Perfluoro(2-ethoxyethane)sulfonic acid] (in DMSO)
Method: as §1

[5] = compound: O=C(O)C(F)(OC(F)(F)C(F)(OC(F)(F)C(F)(OC(F)(F)C(F)(F)C(F)(F)F)C(F)(F)F)C(F)(F)F)C(F)(F)F [Perfluoro-(2,5,8-trimethyl-3,6,9-trioxadodecanoic)acid] (in DMSO)
Method: as §1

[6] = compound: O=C(O)C(F)(OC(F)(F)C(F)(F)C(F)(F)F)C(F)(F)F [Ammonium perfluoro-2-methyl-3-oxahexanoate] (in Water)
Method: as §1

Test System | level (log10) ([1]; 6700 nM) | level (log10) ([1]; 20000 nM) | level (log10) ([2]; 6700 nM) | level (log10) ([2]; 20000 nM) | level (log10) ([2]; 60000 nM) | level (log10) (Octafluoroadipic acid; 6700 nM) | level (log10) (Octafluoroadipic acid; 20000 nM) | level (log10) (Octafluoroadipic acid; 60000 nM) | level (log10) ([3]; 6700 nM) | level (log10) ([3]; 20000 nM) | level (log10) ([4]; 6700 nM) | level (log10) ([4]; 20000 nM) | level (log10) ([4]; 60000 nM) | level (log10) ([5]; 1100 nM) | level (log10) ([5]; 3300 nM) | level (log10) ([5]; 10000 nM) | level (log10) ([6]; 6700 nM) | level (log10) ([6]; 20000 nM) | level (log10) ([6]; 60000 nM)
BF4T:MMP-1 | 0.003 ± 0.016 | 0.0075 ± 0.019 | -0.0055 ± 0.0064 | -0.0135 ± 0.022 | 0.019 ± 0.03 | 0.0065 ± 0.011 | -0.0025 ± 0.015 | 0.007 ± 0.0028 | -0.01 ± 0.054 | 0.0085 ± 0.023 | -0.002 ± 0.013 | -0.0005 ± 0.00071 | 0.0125 ± 0.0064 | 0.0005 ± 0.0092 | -0.0045 ± 0.011 | 0.0065 ± 0.018 | 0.031 ± 0.02 | 0.0105 ± 0.023 | 0.029 ± 0.011
BF4T:MMP-3 | 0.004 ± 0.024 | 0.0845 ± 0.028 | -0.013 ± 0.0042 | 0.018 ± 0.013 | -0.0095 ± 0.0021 | 0.0055 ± 0.033 | -0.0055 ± 0.035 | 0.0025 ± 0.022 | 0.0005 ± 0.0035 | -0.015 ± 0.0099 | 0.0015 ± 0.0064 | 0.0105 ± 0.023 | 0.0805 ± 0.067 | -0.01 ± 0.0014 | -0.01 ± 0.014 | 0.015 ± 0.017 | 0.0335 ± 0.047 | 0.018 ± 0.0057 | 0.048 ± 0.014
BF4T:MMP-9 | -0.006 ± 0.025 | -0.113 ± 0.018 | -0.019 ± 0.03 | -0.008 ± 0.011 | 0.0075 ± 0.0092 | -0.0075 ± 0.047 | -0.0065 ± 0.036 | 0.0165 ± 0.026 | -0.0065 ± 0.037 | -0.001 ± 0.017 | 0.003 ± 0.042 | -0.0005 ± 0.019 | 0.0295 ± 0.0021 | 0.0045 ± 0.015 | -0.003 ± 0.0028 | 0.0135 ± 0.00071 | 0.0275 ± 0.005 | 0.047 ± 0.017 | 0.075 ± 0.013
BF4T:PAI-I | -0.004 ± 0.011 | -0.038 ± 0.0099 | 0.018 ± 0.013 | 0 ± 0.0099 | -0.0065 ± 0.011 | -0.0045 ± 0.026 | -0.011 ± 0.013 | 0.007 ± 0.0071 | -0.008 ± 0.013 | -0.0145 ± 0.0021 | -0.002 ± 0.0014 | -0.002 ± 0.0028 | 0.0105 ± 0.021 | 0.011 ± 0.0071 | -0.0025 ± 0.0092 | 0.006 ± 0.018 | -0.004 ± 0.0028 | 0.001 ± 0.0042 | 0.005 ± 0.0028
BF4T:SRB | -0.009 ± 0.0028 | -0.052 | -0.002 ± 0.0042 | -0.0005 ± 0.0035 | -0.007 ± 0.0071 | -0.0145 ± 0.0064 | -0.011 ± 0.0071 | -0.0065 ± 0.0035 | -0.0055 ± 0.005 | -0.0045 ± 0.005 | 0.0045 ± 0.015 | 0.001 ± 0.0099 | 0.004 ± 0.018 | -0.0035 ± 0.00071 | -0.0035 ± 0.011 | 0.003 ± 0.023 | -0.003 ± 0.013 | 0 ± 0.0014 | 0.0135 ± 0.022
BF4T:tPA | -0.059 ± 0.013 | 0.006 ± 0.02 | -0.011 ± 0.014 | -0.024 ± 0.0057 | -0.025 ± 0.0085 | -0.007 ± 0.0014 | -0.0065 ± 0.025 | 0.0035 ± 0.005 | 0.0005 ± 0.023 | -0.015 ± 0.0028 | -0.0095 ± 0.022 | -0.004 ± 0.021 | 0.017 ± 0.05 | -0.012 ± 0.02 | -0.012 ± 0.0042 | -0.0035 ± 0.021 | 0.0405 ± 0.0078 | 0.0575 ± 0.033 | 0.0185 ± 0.019
BF4T:uPA | 0.014 ± 0.016 | 0.005 ± 0.034 | -0.005 ± 0.0042 | -0.0035 ± 0.0092 | -0.0035 ± 0.012 | -0.0115 ± 0.023 | -0.0175 ± 0.03 | -0.003 | -0.0095 ± 0.00071 | -0.014 ± 0.0085 | -0.003 ± 0.011 | -0.0025 ± 0.021 | 0.0235 ± 0.00071 | 0.008 ± 0.0028 | 0.0015 ± 0.0035 | 0.004 ± 0.0071 | -0.0025 ± 0.011 | -0.0005 ± 0.0078 | 0.0035 ± 0.022
